Here are results for 29 compounds from US20030224942A1, “Alkylamino-1,3,5-triazines, processes for their preparation and their use as herbicides and plant growth regulators” (priority 2001, published 2003).

Test [1] concerns Cyperus spp., Echinochloa spp., Digitaria spp., Sagitaria spp. and Scirpus spp. Description: Action on harmful plants in rice (paddy rice conditions, visual scoring). The class given is in vivo, typical rice weeds (gramineous and broad-leaved). The note with it: applied into the dammed water, visual scoring about three weeks after application. The source says:
Transplanted and sown rice and also typical rice weeds (gramineous and broad-leaved) are cultivated in closed plastic pots in a greenhouse to the three-leaf stage (Echinochloa crus-galli 1.5-leaf) under paddy rice conditions (dammed height of water: 2-3 cm). This is followed by treatment with the compounds according to the invention. […] After this treatment, the test plants are set up in a greenhouse under optimum growth conditions and are maintained in this way throughout the test period.

Test [2] has as its system Chenopodium spp., Papaver spp., Polygonum spp., Veronica spp. or Viola spp. Description: Post-emergence effect on weeds (greenhouse pot test, visual scoring). The format is in vivo, monocotyledonous and dicotyledonous weeds. The note with it: treated at three-leaf stage; visual scoring after about 3 to 4 weeks; application rate of 0.5 kg and less of active substance per hectare.

On to `CCc1nc(N)nc(NCc2cccc(C(F)=C(F)F)c2)n1` [Product P6.1567], for which, in test [1], the “herbicidal activity against harmful plants which are typical for rice crops” value (“herbicidal activity … for rice crops” below) is listed as “very good herbicidal activity”. In addition, the “herbicidal activity post-emergence against harmful plants” value (from here on “herbicidal activity post-emergence”) in test [2] is on record as “very good herbicidal activity”.

Take `CCc1nc(N)nc(NCc2ccc(C(F)=C(F)F)cc2)n1` [Product P6.1568]: the “herbicidal activity … for rice crops” value in test [1] is recorded as “very good herbicidal activity”. Besides, in test [2], the “herbicidal activity post-emergence” value was “very good herbicidal activity”.

On to `C#Cc1cccc(CNc2nc(N)nc(CC)n2)c1` [Product P6.1579], for which the “herbicidal activity … for rice crops” value in test [1] is “very good herbicidal activity”. The “herbicidal activity post-emergence” value in test [2] was “very good herbicidal activity”.

For `C#Cc1ccc(CNc2nc(N)nc(CC)n2)cc1` [Product P6.1580], in test [1], the “herbicidal activity … for rice crops” value is listed as “very good herbicidal activity”. Moreover, the “herbicidal activity post-emergence” value in test [2] is listed as “very good herbicidal activity”.

For `CC#Cc1cccc(CNc2nc(N)nc(CC)n2)c1` [Product P6.1582], the “herbicidal activity … for rice crops” value in test [1] is “very good herbicidal activity”. For the same compound, in test [2], the “herbicidal activity post-emergence” value is on record as “very good herbicidal activity”.

With `CC#Cc1ccc(CNc2nc(N)nc(CC)n2)cc1` [Product P6.1583], the “herbicidal activity … for rice crops” value in test [1] is on record as “very good herbicidal activity”. The “herbicidal activity post-emergence” value in test [2] is given as “very good herbicidal activity”.

`CCc1nc(N)nc(NCc2cccc(C3CC3)c2)n1` [Product P6.1603]: the “herbicidal activity … for rice crops” value in test [1] is “very good herbicidal activity”. In addition, the “herbicidal activity post-emergence” value in test [2] is on record as “very good herbicidal activity”.

In the case of `CCc1nc(N)nc(NCc2ccc(C3CC3)cc2)n1` [Product P6.1604], the “herbicidal activity … for rice crops” value in test [1] is “very good herbicidal activity”. In addition, the “herbicidal activity post-emergence” value in test [2] is “very good herbicidal activity”.

As for `CCc1nc(N)nc(NC(C)c2ccc(F)c(C(F)=C(F)F)c2)n1` (stereo not shown) [Product P7.5], in test [1], the “herbicidal activity … for rice crops” value is listed as “very good herbicidal activity”. Moreover, the “herbicidal activity post-emergence” value in test [2] is listed as “very good herbicidal activity”.

For `CCc1nc(N)nc(NC(C)c2cc(F)c(C(F)=C(F)F)c(F)c2)n1` (stereo not shown) [Product P7.49], the “herbicidal activity … for rice crops” value in test [1] is on record as “very good herbicidal activity”. The “herbicidal activity post-emergence” value in test [2] was “very good herbicidal activity”.

With `C#Cc1cc(C(C)Nc2nc(N)nc(CC)n2)ccc1F` (stereo not shown) [Product P7.309], the “herbicidal activity … for rice crops” value in test [1] was “very good herbicidal activity”. Also, in test [2], the “herbicidal activity post-emergence” value is listed as “very good herbicidal activity”.

In the case of `C#Cc1ccc(C(C)Nc2nc(N)nc(CC)n2)cc1C` (stereo not shown) [Product P7.335], in test [1], the “herbicidal activity … for rice crops” value is “very good herbicidal activity”. Moreover, the “herbicidal activity post-emergence” value in test [2] is “very good herbicidal activity”.

Turning to `C#Cc1c(C)cc(C(C)Nc2nc(N)nc(CC)n2)cc1C` (stereo not shown) [Product P7.348], the “herbicidal activity … for rice crops” value in test [1] is given as “very good herbicidal activity”. Besides, the “herbicidal activity post-emergence” value in test [2] was “very good herbicidal activity”.

On to `C#Cc1cc(C#C)cc(C(C)Nc2nc(N)nc(CC)n2)c1` (stereo not shown) [Product P7.369], for which the “herbicidal activity … for rice crops” value in test [1] was “very good herbicidal activity”. The “herbicidal activity post-emergence” value in test [2] was “very good herbicidal activity”.

In the case of `CC#Cc1cc(C(C)Nc2nc(N)nc(CC)n2)ccc1F` (stereo not shown) [Product P7.384], the “herbicidal activity … for rice crops” value in test [1] was “very good herbicidal activity”. Further, the “herbicidal activity post-emergence” value in test [2] is recorded as “very good herbicidal activity”.

As to `CC#Cc1c(F)cc(C(C)Nc2nc(N)nc(CC)n2)cc1F` (stereo not shown) [Product P7.428], the “herbicidal activity … for rice crops” value in test [1] is “very good herbicidal activity”. Further, in test [2], the “herbicidal activity post-emergence” value is given as “very good herbicidal activity”.

Consider `C=C=Cc1c(F)cc(C(C)Nc2nc(N)nc(CC)n2)cc1F` (stereo not shown) [Product P7.656], for which, in test [1], the “herbicidal activity … for rice crops” value is on record as “very good herbicidal activity”. The “herbicidal activity post-emergence” value in test [2] was “very good herbicidal activity”.

On to `CCc1nc(N)nc(NC(C)c2ccc(F)c(C#CC(C)O)c2)n1` (stereo not shown) [Product P7.840], for which the “herbicidal activity … for rice crops” value in test [1] is given as “very good herbicidal activity”. For the same compound, the “herbicidal activity post-emergence” value in test [2] is reported as “very good herbicidal activity”.

Consider `CCc1nc(N)nc(NC(C)c2cc(F)c(C3CC3)c(F)c2)n1` (stereo not shown) [Product P7.960], for which, in test [1], the “herbicidal activity … for rice crops” value is reported as “very good herbicidal activity”. Also, the “herbicidal activity post-emergence” value in test [2] was “very good herbicidal activity”.

Turning to `CCc1nc(N)nc(NC(C)c2cccc(C(F)=C(F)F)c2)n1` (stereo not shown) [Product P7.1567], the “herbicidal activity … for rice crops” value in test [1] is listed as “very good herbicidal activity”. In test [2], the “herbicidal activity post-emergence” value is listed as “very good herbicidal activity”.

With `CCc1nc(N)nc(NC(C)c2ccc(C(F)=C(F)F)cc2)n1` (stereo not shown) [Product P7.1568], the “herbicidal activity … for rice crops” value in test [1] is reported as “very good herbicidal activity”. For the same compound, the “herbicidal activity post-emergence” value in test [2] is reported as “very good herbicidal activity”.

As for `C#Cc1cccc(C(C)Nc2nc(N)nc(CC)n2)c1` (stereo not shown) [Product P7.1579], in test [1], the “herbicidal activity … for rice crops” value is on record as “very good herbicidal activity”. In test [2], the “herbicidal activity post-emergence” value is “very good herbicidal activity”.

Turning to `C#Cc1ccc(C(C)Nc2nc(N)nc(CC)n2)cc1` (stereo not shown) [Product P7.1580], the “herbicidal activity … for rice crops” value in test [1] was “very good herbicidal activity”. Also, the “herbicidal activity post-emergence” value in test [2] is “very good herbicidal activity”.

Regarding `CC#Cc1cccc(C(C)Nc2nc(N)nc(CC)n2)c1` (stereo not shown) [Product P7.1582], the “herbicidal activity … for rice crops” value in test [1] was “very good herbicidal activity”. Besides, in test [2], the “herbicidal activity post-emergence” value is on record as “very good herbicidal activity”.

`CC#Cc1ccc(C(C)Nc2nc(N)nc(CC)n2)cc1` (stereo not shown) [Product P7.1583]: the “herbicidal activity … for rice crops” value in test [1] is given as “very good herbicidal activity”. Further, the “herbicidal activity post-emergence” value in test [2] is recorded as “very good herbicidal activity”.

In the case of `CCc1nc(N)nc(NC(C)c2cccc(C3CC3)c2)n1` (stereo not shown) [Product P7.1603], the “herbicidal activity … for rice crops” value in test [1] is on record as “very good herbicidal activity”. The “herbicidal activity post-emergence” value in test [2] is given as “very good herbicidal activity”.

Take `CCc1nc(N)nc(NC(C)c2ccc(C3CC3)cc2)n1` (stereo not shown) [Product P7.1604]: in test [1], the “herbicidal activity … for rice crops” value is “very good herbicidal activity”. The “herbicidal activity post-emergence” value in test [2] is listed as “very good herbicidal activity”.

On to `C#Cc1ccc(C(C)Nc2nc(N)nc(CC)n2)cc1F` (stereo not shown) [Product P7.1620], for which the “herbicidal activity … for rice crops” value in test [1] is “very good herbicidal activity”. Besides, in test [2], the “herbicidal activity post-emergence” value is given as “very good herbicidal activity”.

Take `C#Cc1cc(C(Nc2nc(N)nc(CC)n2)C2CC2)ccc1F` (stereo not shown) [Product P9.309]: in test [1], the “herbicidal activity … for rice crops” value is on record as “very good herbicidal activity”. In addition, the “herbicidal activity post-emergence” value in test [2] was “very good herbicidal activity”.
